From patent US11479559B2, “Urea-substituted aromatic ring-linked dioxinoquinoline compounds, preparation method and uses thereof” (BEIJING SCITECH-MQ PHARMACEUTICALS LIMITED, priority 2018, dated 2022)
Like-named read-outs stand apart in the source and are kept apart here.

Target: RET tyrosine kinase (Homo sapiens (Human), UniProt P07949)
Test: Assay of small molecular compounds for inhibiting the activity of RET kinase (LANCE TR-FRET)
Protocol: The assay is based on the LANCE TR-FRET technology of Perkin Elmer Inc., and the assay method is as follows:
2.5 μL of the gradient-diluted compounds were taken with a transfer pipette to a 384-well plate.
Addition of enzyme: 5 μL of 2× RET kinase solution (concentration was 0.8 nM) was taken with a transfer pipette to the corresponding reaction well of the 384-well plate, mixed well and pre-reacted at room temperature for 30 minutes.
2.5 μL 4× Ultra ULight™-JAK-1 (Tyr1023) Peptide (concentration was 200 nM)/ATP (concentration was 40 μM) mixture was taken with a transfer pipette to the corresponding reaction well of the 384-well plate.
The final concentration of DMSO in the reaction system was 4%.
The mixture was mixed well and then centrifuged and reacted at room temperature in dark for 60 min.
The 384-well plate was placed into the Envision plate reader and the signal was detected using the appropriate program.

Sequence of RET tyrosine kinase (P07949 29-1114): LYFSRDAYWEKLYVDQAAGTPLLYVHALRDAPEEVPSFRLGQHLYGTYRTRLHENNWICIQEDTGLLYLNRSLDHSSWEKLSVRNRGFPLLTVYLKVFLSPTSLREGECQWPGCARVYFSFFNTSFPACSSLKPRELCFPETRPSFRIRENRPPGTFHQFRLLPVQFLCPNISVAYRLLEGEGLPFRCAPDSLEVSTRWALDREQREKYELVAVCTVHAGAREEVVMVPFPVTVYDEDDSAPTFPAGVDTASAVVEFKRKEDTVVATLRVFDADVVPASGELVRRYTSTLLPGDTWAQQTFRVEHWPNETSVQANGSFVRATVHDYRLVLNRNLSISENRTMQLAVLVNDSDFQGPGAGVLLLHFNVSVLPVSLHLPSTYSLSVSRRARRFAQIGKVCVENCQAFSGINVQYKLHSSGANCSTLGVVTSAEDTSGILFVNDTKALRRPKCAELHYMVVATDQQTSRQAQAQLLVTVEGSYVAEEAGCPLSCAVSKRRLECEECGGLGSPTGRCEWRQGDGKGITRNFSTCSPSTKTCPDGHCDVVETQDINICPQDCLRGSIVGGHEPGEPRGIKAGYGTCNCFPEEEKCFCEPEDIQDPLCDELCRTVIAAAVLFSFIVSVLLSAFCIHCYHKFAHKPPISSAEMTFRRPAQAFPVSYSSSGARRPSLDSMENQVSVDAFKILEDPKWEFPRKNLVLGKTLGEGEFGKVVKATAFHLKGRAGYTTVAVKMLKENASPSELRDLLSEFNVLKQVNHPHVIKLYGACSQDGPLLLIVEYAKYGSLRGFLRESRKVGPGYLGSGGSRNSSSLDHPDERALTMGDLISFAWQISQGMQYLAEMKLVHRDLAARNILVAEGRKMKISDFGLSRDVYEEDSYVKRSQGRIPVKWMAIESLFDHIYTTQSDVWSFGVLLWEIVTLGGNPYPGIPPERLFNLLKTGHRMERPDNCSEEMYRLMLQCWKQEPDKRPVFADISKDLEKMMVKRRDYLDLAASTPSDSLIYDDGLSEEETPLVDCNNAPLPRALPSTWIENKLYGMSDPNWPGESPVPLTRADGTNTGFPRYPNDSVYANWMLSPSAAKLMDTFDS

Row | SMILES | IC50 (read-out: RET IC50) [nM] | IC50 [nM]
1 | CCOc1cc2nccc(Oc3ccc(NC(=O)Nc4ccc(Cl)c(C(F)(F)F)c4)c(F)c3)c2c2c1OCCO2 [Example 35, 1-(4-chloro-3-(trifluoromethyl)phenyl)-3-(4-((5-ethoxy-2,3-dihydro-[1,4]dioxino[2,3-f]quinolin-10-yl)oxy)-2-fluorophenyl)urea] | < 50 | 
2 | COCCCCCCOc1cc2nccc(Oc3ccc(NC(=O)Nc4ccc(Cl)c(C(F)(F)F)c4)cc3)c2c2c1OCCO2 [Example 29, 1-(4-chloro-3-(trifluoromethyl)phenyl)-3-(4-((5-((6-methoxyhexyl)oxy)-2,3-dihydro-[1,4]dioxino[2,3-f]quinolin-10-yl)oxy)phenyl)urea] | < 50 | 
3 | N#CCOc1cc2nccc(Oc3ccc(NC(=O)Nc4ccc(Cl)c(C(F)(F)F)c4)cc3)c2c2c1OCCO2 [Example 13, 1-(4-chloro-3-(trifluoromethyl)phenyl)-3-(4-((5-(cyanomethoxy)-2,3-dihydro-[1,4]dioxino[2,3-f]quinolin-10-yl)oxy)phenyl)urea] |  | 50 to 500
4 | O=C(Nc1ccc(Oc2ccnc3cc(OC4COC4)c4c(c23)OCCO4)cc1)Nc1ccc(Cl)c(C(F)(F)F)c1 [Example 31] |  | 50 to 500
5 | CC(=O)N1CCN(CCCOc2cc3nccc(Oc4ccc(NC(=O)Nc5ccc(Cl)c(C(F)(F)F)c5)cc4)c3c3c2OCCO3)CC1 [Example 22, 1-(4-((5-(3-(4-acetylpiperazin-1-yl)propoxy)-2,3-dihydro-[1,4]dioxino[2,3-f]quinolin-10-yl)oxy)phenyl)-3-(4-chloro-3-(trifluoromethyl)phenyl)urea] | < 50 | 
6 | COc1cc2nccc(Oc3ccc(NC(=O)Nc4ccc(Cl)c(C(F)(F)F)c4)c(F)c3)c2c2c1OCCO2 [Example 6, 1-(4-chloro-3-(trifluoromethyl)phenyl)-3-(2-fluoro-4-((5-methoxy-2,3-dihydro-[1,4]dioxino[2,3-f]quinolin-10-yl)oxy)phenyl)urea] | < 50 | 
7 | O=C(Nc1ccc(Oc2ccnc3cc(OCCCN4CCOCC4)c4c(c23)OCCO4)cc1Cl)NC1CCCC1 [Example 75, 1-(2-chloro-4-((5-(3-morpholinopropoxy)-2,3-dihydro-[1,4]dioxino[2,3-f]quinolin-10-yl)oxy)phenyl)-3-cyclopentylurea] |  | < 50
8 | COc1cc2nccc(Oc3ccc(NC(=O)NC4CCCC4)c(Cl)c3)c2c2c1OCCO2 [Example 69, 1-(2-chloro-4-((5-methoxy-2,3-dihydro-[1,4]dioxino[2,3-f]quinolin-10-yl)oxy)phenyl)-3-cyclopentylurea] | < 50 | 
9 | COCCCOc1cc2nccc(Oc3ccc(NC(=O)NC4CCCC4)c(Cl)c3)c2c2c1OCCO2 [Example 73, 1-(2-chloro-4-((5-(3-methoxypropoxy)-2,3-dihydro-[1,4]dioxino[2,3-f]quinolin-10-yl)oxy)phenyl)-3-cyclopentylurea] |  | 50 to 500
10 | O=C(Nc1ccc(Oc2ccnc3cc(OCCCN4CCS(=O)(=O)CC4)c4c(c23)OCCO4)cc1)Nc1ccc(Cl)c(C(F)(F)F)c1 [Example 23, 1-(4-chloro-3-(trifluoromethyl)phenyl)-3-(4-((5-(3-(1,1-dioxothiomorpholino)propoxy)-2,3-dihydro-[1,4]dioxino[2,3-f]quinolin-10-yl)oxy)phenyl)urea] |  | 50 to 500
11 | COc1cc2nccc(Oc3ccc(NC(=O)NCC(C)C)c(Cl)c3)c2c2c1OCCO2 [Example 83, 1-(2-chloro-4-((5-methoxy-2,3-dihydro-[1,4]dioxino[2,3-f]quinolin-10-yl)oxy)phenyl)-3-isobutylurea] |  | 50 to 500
12 | COCCCOc1cc2nccc(Oc3ccc(NC(=O)Nc4ccc(Cl)c(C(F)(F)F)c4)c(F)c3)c2c2c1OCCO2 [Example 39, 1-(4-chloro-3-(trifluoromethyl)phenyl)-3-(2-fluoro-4-((5-(3-methoxypropoxy)-2,3-dihydro-[1,4]dioxino[2,3-f]quinolin-10-yl)oxy)phenyl)urea] |  | 50 to 500
13 | O=C(Nc1ccc(Oc2ccnc3cc(OC4CCOC4)c4c(c23)OCCO4)cc1)Nc1ccc(Cl)c(C(F)(F)F)c1 (stereo not shown) [Example 32, 1-(4-chloro-3-(trifluoromethyl)phenyl)-3-(4-((5-((tetrahydrofuran-3-yl)oxy)-2,3-dihydro-[1,4]dioxino[2,3-f]quinolin-10-yl)oxy)phenyl)urea] |  | 50 to 500
14 | COCCOc1cc2nccc(Oc3ccc(NC(=O)Nc4ccc(Cl)c(C(F)(F)F)c4)cc3)c2c2c1OCCO2 [Example 8, 1-(4-chloro-3-(trifluoromethyl)phenyl)-3-(4-((5-(2-methoxyethoxy)-2,3-dihydro-[1,4]dioxino[2,3-f]quinolin-10-yl)oxy)phenyl)urea] | < 50 | 
15 | CC1(C)CCN(CCCOc2cc3nccc(Oc4ccc(NC(=O)Nc5ccc(Cl)c(C(F)(F)F)c5)cc4)c3c3c2OCCO3)CC1 [Example 24, 1-(4-chloro-3-(trifluoromethyl)phenyl)-3-(4-((5-(3-(4,4-dimethylpiperidin-1-yl)propoxy)-2,3-dihydro-[1,4]dioxino[2,3-f]quinolin-10-yl)oxy)phenyl)urea] | < 50 | 
16 | COc1cc2nccc(Oc3ccc(NC(=O)NC(C)C)c(Cl)c3)c2c2c1OCCO2 [Example 82, 1-(2-chloro-4-((5-methoxy-2,3-dihydro-[1,4]dioxino[2,3-f]quinolin-10-yl)oxy)phenyl)-3-isopropylurea] | < 50 | 
17 | COCCOc1cc2nccc(Oc3ccc(NC(=O)Nc4cc(C(F)(F)F)ccc4F)cc3)c2c2c1OCCO2 [Example 34, 1-(2-fluoro-5-(trifluoromethyl)phenyl)-3-(4-((5-(2-methoxyethoxy)-2,3-dihydro-[1,4]dioxino[2,3-f]quinolin-10-yl)oxy)phenyl)urea] |  | < 50
18 | COCCCOc1cc2nccc(Oc3ccc(NC(=O)Nc4cc(C(F)(F)F)ccc4F)cc3)c2c2c1OCCO2 [Example 40, 1-(2-fluoro-5-(trifluoromethyl)phenyl)-3-(4-((5-(3-methoxypropoxy)-2,3-dihydro-[1,4]dioxino[2,3-f]quinolin-10-yl)oxy)phenyl)urea] | < 50 | 

Continued, values first:

Row | IC50 (read-out: RET IC50) [nM] | IC50 [nM] | SMILES
19 | < 50 |  | O=C(Nc1ccc(Oc2ccnc3cc(OCCCN4CCOCC4)c4c(c23)OCCO4)cc1)Nc1cc(C(F)(F)F)ccc1F [Example 76, 1-(2-fluoro-5-(trifluoromethyl)phenyl)-3-(4-((5-(3-morpholinopropoxy)-2,3-dihydro-[1,4]dioxino[2,3-f]quinolin-10-yl)oxy)phenyl)urea]
20 |  | 50 to 500 | O=C(Nc1ccc(Oc2ccnc3cc(OCCCN4CCOCC4)c4c(c23)OCCO4)c(F)c1)Nc1ccc(Cl)c(C(F)(F)F)c1 [Example 41, 1-(4-chloro-3-(trifluoromethyl)phenyl)-3-(3-fluoro-4-((5-(3-morpholinopropoxy)-2,3-dihydro-[1,4]dioxino[2,3-f]quinolin-10-yl)oxy)phenyl)urea]
21 | < 50 |  | O=C(Nc1ccc(Cl)c(C(F)(F)F)c1)Nc1ccc(Oc2ccnc3cc(OCCCN4CCOCC4)c4c(c23)OCCO4)cc1F [Example 42, 1-(4-chloro-3-(trifluoromethyl)phenyl)-3-(2-fluoro-4-((5-(3-morpholinopropoxy)-2,3-dihydro-[1,4]dioxino[2,3-f]quinolin-10-yl)oxy)phenyl)urea]
22 | < 50 |  | COc1cc2nccc(Oc3ccc(NC(=O)NC4CCC4)c(Cl)c3)c2c2c1OCCO2 [Example 68, 1-(2-chloro-4-((5-methoxy-2,3-dihydro-[1,4]dioxino[2,3-f]quinolin-10-yl)oxy)phenyl)-3-cyclobutylurea]
23 | < 50 |  | COc1cc2nccc(Oc3ccc(NC(=O)Nc4cc(C(F)(F)F)ccc4F)cc3)c2c2c1OCCO2 [Example 2, 1-(2-fluoro-5-(trifluoromethyl)phenyl)-3-(4-((5-methoxy-2,3-dihydro-[1,4]dioxino[2,3-f]quinolin-10-yl)oxy)phenyl)urea]
24 |  | 50 to 500 | COc1cc2nccc(Oc3ccc(NC(=O)Nc4ccc(F)cc4)cc3)c2c2c1OCCO2 [Example 3, 1-(4-fluorophenyl)-3-(4-((5-methoxy-2,3-dihydro-[1,4]dioxino[2,3-f]quinolin-10-yl)oxy)phenyl)urea]
25 | < 50 |  | CC(C)Oc1cc2nccc(Oc3ccc(NC(=O)NC4CC4)c(Cl)c3)c2c2c1OCCO2 [Example 44, 1-(2-chloro-4-((5-isopropoxy-2,3-dihydro-[1,4]dioxino[2,3-f]quinolin-10-yl)oxy)phenyl)-3-cyclopropylurea]
26 |  | 50 to 500 | COCCCOc1cc2nccc(Oc3ccc(NC(=O)Nc4ccc(Cl)c(C(F)(F)F)c4)cc3F)c2c2c1OCCO2 [Example 38, 1-(4-chloro-3-(trifluoromethyl)phenyl)-3-(3-fluoro-4-((5-(3-methoxypropoxy)-2,3-dihydro-[1,4]dioxino[2,3-f]quinolin-10-yl)oxy)phenyl)urea]
27 |  | < 50 | COCCOc1cc2nccc(Oc3ccc(NC(=O)Nc4ccc(Cl)c(C(F)(F)F)c4)c(F)c3)c2c2c1OCCO2 [Example 37, 1-(4-chloro-3-(trifluoromethyl)phenyl)-3-(2-fluoro-4-((5-(2-methoxyethoxy)-2,3-dihydro-[1,4]dioxino[2,3-f]quinolin-10-yl)oxy)phenyl)urea]
28 | < 50 |  | COCCOc1cc2nccc(Oc3ccc(NC(=O)Nc4ccc(Cl)c(C(F)(F)F)c4)cc3F)c2c2c1OCCO2 [Example 36, 1-(4-chloro-3-(trifluoromethyl)phenyl)-3-(3-fluoro-4-((5-(2-methoxyethoxy)-2,3-dihydro-[1,4]dioxino[2,3-f]quinolin-10-yl)oxy)phenyl)urea]
29 |  | < 50 | COCCOc1cc2nccc(Oc3ccc(NC(=O)NC4CCCC4)c(Cl)c3)c2c2c1OCCO2 [Example 71, 1-(2-chloro-4-((5-(2-methoxyethoxy)-2,3-dihydro-[1,4]dioxino[2,3-f]quinolin-10-yl)oxy)phenyl)-3-cyclopentylurea]
30 |  | 50 to 500 | O=C(Nc1ccc(Oc2ccnc3cc(OC4CCOCC4)c4c(c23)OCCO4)cc1)Nc1ccc(Cl)c(C(F)(F)F)c1 [Example 33, 1-(4-chloro-3-(trifluoromethyl)phenyl)-3-(4-((5-((tetrahydro-2H-pyran-4-yl)oxy)-2,3-dihydro-[1,4]dioxino[2,3-f]quinolin-10-yl)oxy)phenyl)urea]
31 |  | 50 to 500 | COc1cc2nccc(Oc3ccc(NC(=O)Nc4ccc(F)cc4F)cc3)c2c2c1OCCO2 [Example 4, 1-(2,4-difluorophenyl)-3-(4-((5-methoxy-2,3-dihydro-[1,4]dioxino[2,3-f]quinolin-10-yl)oxy)phenyl)urea]
